Results published in patent US20070149546A1, “4-Anilino-quinazoline derivatives as antiproliferative agents” (priority 2003, published 2007).
Counter-ions that a name gives are not always drawn.

Key:
[1] = target: T1, EGFR kinase (Homo sapiens, UniProt P00533); test: Protein tyrosine kinase phosphorylation assay, Test (a): EGFR; type: biochemical; settings: inhibition of phosphorylation of a tyrosine containing polypeptide substrate by EGFR kinase; ATP at Km
T1 construct: Recombinant intracellular fragments of EGFR and erbB2; made in house; host or cells: baculovirus/Sf21 insect cells
T1 sequence (P00533 669-1210 limits assumed): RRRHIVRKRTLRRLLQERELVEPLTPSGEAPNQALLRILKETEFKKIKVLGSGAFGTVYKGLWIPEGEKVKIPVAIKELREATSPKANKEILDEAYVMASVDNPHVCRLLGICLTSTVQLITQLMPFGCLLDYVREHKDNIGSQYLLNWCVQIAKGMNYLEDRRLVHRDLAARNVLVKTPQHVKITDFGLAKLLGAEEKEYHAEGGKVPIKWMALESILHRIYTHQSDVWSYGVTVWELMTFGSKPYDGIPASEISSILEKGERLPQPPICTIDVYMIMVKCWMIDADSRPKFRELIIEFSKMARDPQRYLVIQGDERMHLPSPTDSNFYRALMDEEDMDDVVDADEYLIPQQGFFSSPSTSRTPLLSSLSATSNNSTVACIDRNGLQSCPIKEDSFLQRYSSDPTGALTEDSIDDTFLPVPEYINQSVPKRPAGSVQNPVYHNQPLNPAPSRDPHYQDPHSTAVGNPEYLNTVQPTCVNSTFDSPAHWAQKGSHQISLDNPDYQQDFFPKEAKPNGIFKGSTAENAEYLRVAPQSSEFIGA
Protocol: (§1) This test measures the ability of a test compound to inhibit the phosphorylation of a tyrosine containing polypeptide substrate by an enzyme selected from the EGFR kinase and erbB2 kinase.
(§2) Recombinant intracellular fragments of EGFR and erbB2 (accession numbers X00588 and X03363 respectively) were cloned and expressed in the baculovirus/Sf21 system. Lysates were prepared from these cells by treatment with ice-cold lysis buffer (20 mM N-2-hydroxyethylpiperizine-N′-2-ethanesulfonic acid (HEPES) pH 7.5, 150 mM NaCl, 10% glycerol, 1% Triton X-100, 1.5 mM MgCl2, 1 mM ethylene glycol-bis(β-aminoethyl ether) N′,N′,N′,N′-tetraacetic acid (EGTA), plus protease inhibitors and then cleared by centrifugation.
(§3) Constitutive kinase activity of these recombinant proteins was determined by their ability to phosphorylate a synthetic peptide (made up of a random co-polymer of Glutamic Acid, Alanine and Tyrosine in the ratio of 6:3:1). Specifically, Maxisorb™ 96-well immunoplates were coated with synthetic peptide (0.2 μg of peptide in a 200 μl phosphate buffered saline (PBS) solution and incubated at 4° C. overnight). Plates were washed in 50 mM HEPES pH 7.4 at room temperature to remove any excess unbound synthetic peptide. […] Reactions were terminated by the removal of the liquid components of the assay followed by washing of the plates with PBS-T (phosphate buffered saline with 0.5% Tween 20).
(§4) The immobilised phospho-peptide product of the reaction was detected by immunological methods. Firstly, plates were incubated for 90 minutes at room temperature with anti-phosphotyrosine primary antibodies that were raised in the mouse (4G10 from Upstate Biotechnology). Following extensive washing, plates were treated with Horseradish Peroxidase (HRP) conjugated sheep anti-mouse secondary antibody (NXA931 from Amersham) for 60 minutes at room temperature. After further washing, HRP activity in each well of the plate was measured colorimetrically using 22′-Azino-di-[3-ethylbenzthiazoline sulfonate (6)] diammonium salt crystals (ABTS™ from Roche) as a substrate.
(§5) Kinase inhibition for a given compound was expressed as an IC50 value. […] The range of phosphorylation was calculated from the positive (vehicle plus ATP) and negative (vehicle minus ATP) control values.

[2] = target: T2, erbB2 (Homo sapiens, UniProt P04626); test: Protein tyrosine kinase phosphorylation assay, Test (a): erbB2; type: biochemical; parameters: Recombinant intracellular fragments of EGFR and erbB2; made in house; host or cells: baculovirus/Sf21 insect cells; settings: inhibition of phosphorylation of a tyrosine containing polypeptide substrate by erbB2 kinase; ATP at Km
Protocol: as §1, §2, §3, §4, §5
Target sequence in this assay (P04626 676-1255 limits assumed): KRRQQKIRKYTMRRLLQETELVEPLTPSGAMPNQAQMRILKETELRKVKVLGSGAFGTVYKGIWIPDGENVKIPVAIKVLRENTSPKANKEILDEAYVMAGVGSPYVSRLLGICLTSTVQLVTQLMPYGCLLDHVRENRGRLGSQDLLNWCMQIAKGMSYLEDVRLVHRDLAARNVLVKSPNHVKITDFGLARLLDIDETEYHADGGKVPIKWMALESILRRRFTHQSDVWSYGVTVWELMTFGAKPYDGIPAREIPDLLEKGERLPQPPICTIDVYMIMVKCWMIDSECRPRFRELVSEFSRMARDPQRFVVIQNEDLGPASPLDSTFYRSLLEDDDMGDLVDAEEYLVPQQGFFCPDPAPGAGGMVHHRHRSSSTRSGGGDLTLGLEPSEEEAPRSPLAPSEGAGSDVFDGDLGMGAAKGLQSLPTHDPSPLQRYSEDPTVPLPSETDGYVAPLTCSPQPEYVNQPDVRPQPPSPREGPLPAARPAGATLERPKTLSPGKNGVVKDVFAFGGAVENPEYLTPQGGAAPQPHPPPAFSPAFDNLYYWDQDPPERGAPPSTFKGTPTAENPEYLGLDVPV

[3] = target: T2, erbB2; test: Clone 24 phospho-erbB2 cell assay, Test (e); type: cell-based; parameters: a cell line that overexpresses full length wild type erbB2 protein; expressed in transfected cells; host or cells: MCF7 (breast carcinoma) derived Clone 24 cells; settings: inhibition of phosphorylation of erbB2 in a MCF7 (breast carcinoma) derived cell line (Clone 24)
Protocol: The cells were resuspended in Growth Medium.
3 days later, Growth Medium was removed from the wells and replaced with 100 ul Assay Medium (phenol red free DM , 2 mM glutamine, 1.2 mg/ml G418) either with or without erbB inhibitor compound. Plates were returned to the incubator for 4 hours and then 20 μl of 20% formaldehyde solution in PBS was added to each well and the plate was left at room temperature for 30 minutes. This fixative solution was removed with a multichannel pipette, 100 μl of PBS was added to each well and then removed with a multichannel pipette and then 50 μl PBS was added to each well. Plates were then sealed and stored for up to 2 weeks at 4° C.
Immunostaining was performed at room temperature. Wells were washed once with 200 μl PBS/Tween 20 (made by adding 1 sachet of PBS/Tween dry powder (Sigma, No. P3563) to 1 L of double distilled H2O) using a plate washer then 200 μl Blocking Solution (5% Marvel dried skimmed milk (Nestle) in PBS/Tween 20) was added and incubated for 10 minutes. Blocking Solution was removed using a plate washer and 200 μl of 0.5% Triton X-100/PBS was added to permeabalise the cells. After 10 minutes, the plate was washed with 200μl PBS/Tween 20 and then 200 μl Blocking Solution was added once again and incubated for 15 minutes. […] Then this primary antibody solution was removed from the wells using a plate washer followed by two 200 μl PBS/Tween 20 washes using a plate washer. […] From now onwards, wherever possible, plates were protected from light exposure, at this stage by sealing with black backing tape. The plates were incubated for 45 minutes and then the secondary antibody solution was removed from the wells followed by two 200 ul PBS/Tween 20 washes using a plate washer. Then 100 μl PBS was added to each plate, incubated for 10 minutes and then removed using a plate washer. Then a further 100 μl PBS was added to each plate and then, without prolonged incubation, removed using a plate washer. Then 50 μl of PBS was added to each well and plates were resealed with black backing tape and stored for up to 2 days at 4° C. before analysis.
The Fluorescence signal is each well was measured using an Acumen Explorer Instrument (Acumen Bioscience Ltd.), a plate reader that can be used to rapidly quantitate features of images generated by laser-scanning. The instrument was set to measure the number of fluorescent objects above a pre-set threshold value and this provided a measure of the phosphorylation status of erbB2 protein. Fluorescence dose response data obtained with each compound was exported into a suitable software package (such as Origin) to perform curve fitting analysis. Inhibition of erbB2 phosphorylation was expressed as an IC50 value.
Target sequence in this assay (P04626 23-1255): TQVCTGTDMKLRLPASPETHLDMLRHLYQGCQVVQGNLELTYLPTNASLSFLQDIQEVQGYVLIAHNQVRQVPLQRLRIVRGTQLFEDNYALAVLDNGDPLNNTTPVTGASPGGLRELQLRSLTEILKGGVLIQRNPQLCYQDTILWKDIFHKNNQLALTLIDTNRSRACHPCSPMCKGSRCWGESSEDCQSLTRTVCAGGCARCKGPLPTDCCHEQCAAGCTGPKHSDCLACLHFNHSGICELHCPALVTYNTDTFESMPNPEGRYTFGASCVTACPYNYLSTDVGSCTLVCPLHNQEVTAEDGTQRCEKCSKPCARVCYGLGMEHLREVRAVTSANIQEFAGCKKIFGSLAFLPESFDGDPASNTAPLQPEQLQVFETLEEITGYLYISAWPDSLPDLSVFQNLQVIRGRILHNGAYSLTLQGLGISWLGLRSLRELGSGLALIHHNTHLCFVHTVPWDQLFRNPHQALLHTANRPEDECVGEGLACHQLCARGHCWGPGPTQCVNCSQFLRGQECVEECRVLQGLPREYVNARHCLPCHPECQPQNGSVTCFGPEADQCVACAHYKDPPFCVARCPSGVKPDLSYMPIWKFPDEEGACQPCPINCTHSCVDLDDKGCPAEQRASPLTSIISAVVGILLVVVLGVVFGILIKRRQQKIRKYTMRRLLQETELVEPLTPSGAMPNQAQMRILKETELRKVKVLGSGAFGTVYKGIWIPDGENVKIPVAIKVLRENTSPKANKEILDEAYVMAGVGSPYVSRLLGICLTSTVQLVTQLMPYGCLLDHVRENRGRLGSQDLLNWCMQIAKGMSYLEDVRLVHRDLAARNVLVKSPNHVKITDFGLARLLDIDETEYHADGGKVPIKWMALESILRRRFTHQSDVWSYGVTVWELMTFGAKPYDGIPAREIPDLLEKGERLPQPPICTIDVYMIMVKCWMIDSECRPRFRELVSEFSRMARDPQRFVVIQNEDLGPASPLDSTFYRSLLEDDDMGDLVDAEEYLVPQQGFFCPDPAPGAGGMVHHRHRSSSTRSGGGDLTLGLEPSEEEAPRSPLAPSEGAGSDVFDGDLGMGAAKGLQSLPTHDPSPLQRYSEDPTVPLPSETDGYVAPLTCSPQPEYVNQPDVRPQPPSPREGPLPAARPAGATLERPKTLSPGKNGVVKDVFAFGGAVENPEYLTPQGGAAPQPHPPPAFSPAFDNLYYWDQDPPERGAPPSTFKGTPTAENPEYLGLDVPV

Row | IC50 [1] [µM] | IC50 [2] [µM] | IC50 [3] [µM] | Structure (SMILES)
1 | 8.4 | 0.017 | 0.003 | COc1cc(Nc2ncnc3cccc(OCCN(C)C)c23)ccc1OCc1cc(C)on1 [Example 37, 5-[2-(Dimethylamino)ethoxy]-N-{3-methoxy-4-[(5-methylisoxazol-3-yl)methoxy]phenyl}quinazolin-4-amine]
2 | 4.3 | 0.002 | 0.003 | COc1cc(Nc2ncnc3cccc(OC(C)CN(C)C)c23)ccc1Oc1ccccc1 (stereo not drawn) [Example 54, 5-[2-(Dimethylamino)-1-methylethoxy]-N-(3-methoxy-4-phenoxyphenyl)quinazolin-4-amine]
3 | 0.49 | 0.002 | 0.002 | CN(C)CC(C)(C)Oc1cccc2ncnc(Nc3ccc(OCc4ccccn4)c(Cl)c3)c12 [Example 56, N-[3-Chloro-4-(pyridin-2-ylmethoxy)phenyl]-5-[2-(dimethylamino)-1,1-dimethylethoxy]quinazolin-4-amine]
4 | 0.068 | 0.002 | 0.001 | C[C@H](CN(C)C)Oc1cccc2ncnc(Nc3ccc(OCc4cscn4)c(Cl)c3)c12 [Example 23]
5 | 0.064 | 0.005 | 0.001 | C[C@H](CN(C)C)Oc1cccc2ncnc(Nc3ccc(Sc4nccn4C)c(Cl)c3)c12 [Example 53, N-{3-Chloro-4-[(1-methyl-1H-imidazol-2-yl)thio]phenyl}-5-[(1R)-2-(dimethylamino)-1-methylethoxy]quinazolin-4-amine dihydrochloride]
